Measurements reported in patent publication EP1944294A1, “Gamma-polymorph of a substituted pyrazoline, its preparation and use as medicaments” (Laboratorios del Dr. Esteve S.A., priority 2007, dated 2008).

Target: recombinant human cannabinoid 1 receptor (CB1) (Homo sapiens, UniProt P21554)
Conditions: compound at 1 µM; 100 % = difference between maximal effect of WIN 55,212-2 alone and WIN 55,212-2 plus Rimonabant (1 µM)
Protocol: Chinese hamster ovary (CHO) cells stably expressing recombinant human cannabinoid 1 receptor (CB1) are cultured in nutrient mixture Ham's F 12 supplemented with 10 % heat-inactivated fetal bovine serum, 2 mM L-glutamine, 50 U/ml penicillin, 50 U/ml streptomycin and 0.5 mg/ml geneticin. In order to obtain cells, culture flasks are washed twice with phosphate buffered saline and scraped. Then, cells are collected by centrifugation (200 x g, 10 min) and stored dry at -80°C. Cells are homogenized in ice-cold 20 mM HEPES, 10 mM EDTA (pH 7.5) and centrifuged at 40,000 x g for 15 min at 4°C. The membrane pellet is resuspended in 20 mM HEPES, 0.1 1 mM EDTA (pH 7.5) and centrifuged for 15 min at 4°C. The final membrane pellet is resuspended in 20 mM HEPES, 0.1 1 mM EDTA (pH 7.5), and divided in aliquots and stored at -80°C until use.
The reaction is performed in 96-well plates. Membranes (15 µg protein/well) are incubated for 60 min at 30 °C in buffer (50 mM HEPES, 100 mM KCI, 5 mM MgCl2,1 mM EDTA, 0.1 % wt/vol bovine serum albumin, 5 µM GDP, saponin (10 µg/ml), 0.5 nM [^35S]GTPγS, pH 7.4) with compound at a final concentration of 1 µM in either the absence or presence of agonist WIN 55,212-2 between 3 nM and 3 µM. […] Radioactivity is determined using a Wallac Microbeta Trilux. […]

Sequence of recombinant human cannabinoid 1 receptor (CB1) (P21554 whole entry): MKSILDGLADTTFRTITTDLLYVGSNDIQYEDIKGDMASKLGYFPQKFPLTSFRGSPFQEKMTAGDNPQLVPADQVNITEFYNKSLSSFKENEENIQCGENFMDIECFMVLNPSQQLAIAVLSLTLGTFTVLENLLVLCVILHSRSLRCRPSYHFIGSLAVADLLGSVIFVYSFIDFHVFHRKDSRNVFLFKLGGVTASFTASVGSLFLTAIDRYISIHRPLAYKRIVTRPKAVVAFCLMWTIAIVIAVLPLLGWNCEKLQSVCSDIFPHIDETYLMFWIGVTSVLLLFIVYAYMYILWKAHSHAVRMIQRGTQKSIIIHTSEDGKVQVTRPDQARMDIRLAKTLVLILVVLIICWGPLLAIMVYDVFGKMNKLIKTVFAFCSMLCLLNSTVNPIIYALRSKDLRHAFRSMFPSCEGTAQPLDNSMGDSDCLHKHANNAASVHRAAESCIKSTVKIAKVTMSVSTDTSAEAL

O=C(NN1CCCCC1)C1=NN(c2ccc(Cl)cc2Cl)[C@@H](c2ccc(Cl)cc2)C1 [Compound A, (R)-N-piperidinyl-5-(4-chlorophenyl)-1-(2,4-dichlorophenyl)-4,5-dihydro-1H-pyrazole-3-carboxamide]
Antagonism: 106%
